Laboratory results: patent US20230271928A1, “NAPHTHYLUREA COMPOUND, METHODS OF PREPARATION AND USE THEREOF” (Henan Radiomedical Science and Technology Co., Ltd., priority 2021, published 2023)
pIC50: −log10 of the molar value. Read-outs that look alike come from different tables or passages of the source.

Assays:
Format in all cases: cell-based
SMMC-7721 cells = experiment: MTT proliferation assay, SMMC-7721; conditions: Homo sapiens; SMMC-7721, MTT, 48 h
Procedure: (§1) Difference cell lines HepG2, SMMC-7721, HuH-7, MCF-7, MDA-MB-231, MDA-MB-468, PC9, PC9-AR, PC9-GR, Jurkat and Molt-13 were harvested during log phase; the number of the cells in an original cell suspension was counted; the original cell suspension was diluted to a density of 5×10^4 cells/mL; for a 96-well plate, 100 uL of the cell suspension was transferred to each well; DMSO is used as solvent for negative control; (2E)-3-(6-bromo-2-pyridyl)-2-cyano-N-[(1S)-1-phenylethyl]-2-acrylamide (WP1066CAS: 857064-38-1, with a formula
(§2) or gefitinib was used as a positive control; the naphthylurea compound ID1120B-1 and the phosphate ID1120B-P thereof were diluted with DMSO and added into the 96-well plate to achieve a final concentration of 0.1, 0.3, 1, 3, 10, 30, 100 and 300 μmol/L in each well; the 96-well plate was incubated for 48 h; 10 μL of MTT solvent (5 mg/mL) was added into each well; the 96-well plate was incubated at 37° C. for 4 h; a culture supernatant was discarded; 150 μL of DMSO was added into each well; the 96-well plate was shaken for 10 min on a plate shaker; an optical density (OD) of the resulting product was measured at a wavelength of 490 nm by an ELISA reader. Test results were recorded. A cell growth curve was drawn with the dosage of each compound as abscissa and the absorbance value as ordinate. The half maximum inhibition rates (IC50 value) of the cancer cells were shown in Table 1, FIGS. 1A-1J and FIGS. 2A-2J.

MDA-MB-468 cells = experiment: MTT proliferation assay, MDA-MB-468; conditions: Homo sapiens, MDA-MB-468, MTT
Procedure: (§3) Test results were recorded. A cell growth curve was drawn with the dosage of each compound as abscissa and the absorbance value as ordinate.

HepG2 cells [1] = experiment: MTT proliferation assay, HepG2; conditions: Homo sapiens
Procedure: as §1, §2

MCF-7 cells = experiment: MTT proliferation assay, MCF-7; conditions: Homo sapiens
Procedure: as §3

MDA-MB-231 cells = experiment: MTT proliferation assay, MDA-MB-231; conditions: Homo sapiens; MDA-MB-231, MTT, 48 h
Procedure: as §3

HepG2 cells [2] = experiment: Cell cycle analysis by PI flow cytometry; conditions: HepG2, 48 h
Procedure: HepG2 cells were harvested during log phase, digested, centrifuged and prepared into a single cell suspension; the number of the cells in the single cell suspension was counted; the cells were seeded into a 12-well plate, with 2×10^5 cells per well; three wells were used as a parallel control design; 16 hours after seeding, the cells were treated with the compounds in a concentration gradient for 48 h; the cells were digested with trypsin and resuspended; the number of the cells in the cell suspension was counted and diluted to 5×10^5 cells/mL; after the digestion was completed, the cell suspension was centrifuged; the supernatant was discarded; the pellet was washed twice with PBS (each time the mixture was centrifuged 2000 rpm for 5 min); the supernatant was discarded; a fixative comprising 980 μL of 70% cold ethanol and 20 μL of 5% BSA (a small amount of BSA reduces cellular stress and damage) was added to each microcentrifuge tube, so that the cells were fixed overnight at 4° C.; the fixative is discarded; the cells were washed three times in PBS to remove residual fixative (each time the mixture was centrifuged at 1000 rpm for 3 min); a DNA quantification kit is used to measure the content of DNA according to the following instruction (Suo Laibao, Beijing): each sample was incubated in 100 μL of RNase A at 37° C. for 30 min; 500 μL of PI (propidium iodide) was added to each sample; each sample was incubated at room temperature for 30 min in the dark; the cell cycle was analyzed by a flow cytometry and a ModFit software; and Graphpad prism 6.0 was used to estimate the percentage of a cell population in the different phases of the cell cycle.

HuH-7 cells = experiment: MTT proliferation assay, HuH-7; conditions: Homo sapiens; HuH-7, MTT, 48 h
Procedure: as §1, §2

[3] = MCF7, MCF-7, MTT, 48 h, read-out: IC50
[4] = compared with negative control (DMSO)

SMILES | pIC50 (MDA-MB-468 cells; MDA-MB-468, 48 h) | pIC50 (HepG2 cells [1]; HepG2, 48 h) | also measured
O=C(NCc1ccccc1)Nc1ccc(OCc2ccc(OCCN3CCCCC3)c(Cl)c2)c2ccccc12 [ID1120C-1] | – | – | pIC50 (SMMC-7721 cells): 5.17
N#Cc1cc(OCCN2CCCCC2)ccc1COc1ccc(NC(=O)NCc2ccccc2)c2ccccc12 [ID1120D-1] | – | – | pIC50 (SMMC-7721 cells): 5.16
O=C(Nc1ccc(OCc2ccc(OCCN3CCCCC3)cc2)c2ccccc12)NC1CCCCC1 [ID1207B-1] | – | – | pIC50 (MDA-MB-468 cells; 48 h): 3.57; pIC50 (HepG2 cells [1]; 48 h): 3.33
O=C(NCCc1ccccc1)Nc1ccc(OCc2ccc(OCCN3CCCCC3)cc2)c2ccccc12 [ID1210B-1] | – | – | pIC50 (MCF-7 cells; MCF7, 48 h): 5.09
O=C(Nc1ccc(OCc2ccc(OCCN3CCCCC3)cc2Cl)c2ccccc12)NC1CCCCC1 [ID1215C-1] | – | – | pIC50 (MDA-MB-468 cells; 48 h): 5.46
COc1ccc(NC(=O)Nc2ccc(OCc3ccc(OCCN4CCCCC4)cc3)c3ccccc23)cc1OC [ID1224C-1] | – | 4.03 | –
O=C(Nc1ccc(OC(F)(F)F)c(Cl)c1)Nc1ccc(OCc2ccc(OCCN3CCCCC3)cc2)c2ccccc12 [ID1229C-1] | 4.32 | 4.30 | –
O=C(NCc1ccc(F)c(Cl)c1)Nc1ccc(OCc2ccc(OCCN3CCCCC3)cc2)c2ccccc12 [ID210115B-1] | – | 5.33 | pIC50 (MCF-7 cells; [3]): 4.41
O=C(Nc1ncccc1Cl)Nc1ccc(OCc2ccc(OCCN3CCCCC3)cc2)c2ccccc12 [ID210119B-1] | 4.58 | 4.58 | –
S=C(NCc1ccccc1)Nc1ccc(OCc2ccc(OCCN3CCCCC3)cc2)c2ccccc12 [IY1207A-1] | – | – | pIC50 (MCF-7 cells; [3]): 4.61
COc1ccc(NC(=O)Nc2ccc(OCc3ccc(OCCN4CCCCC4)cc3)c3ccccc23)cc1Cl [IY1225B-1] | – | 5.71 | –
O=C(Nc1ccc(Cl)cc1)Nc1ccc(OCc2ccc(OCCN3CCCCC3)cc2)c2ccccc12 [IY1229D-1] | – | – | pIC50 (MDA-MB-468 cells; 48 h): 4.85; pIC50 (HepG2 cells [1]; 48 h): 4.91
O=C(Nc1ccc(Cl)cc1F)Nc1ccc(OCc2ccc(OCCN3CCCCC3)cc2)c2ccccc12 [IY210103B-1] | 4.69 | 4.17 | –
O=C(Nc1ccc(F)c(Cl)c1)Nc1ccc(OCc2ccc(OCCN3CCCCC3)cc2)c2ccccc12 [IY210105B-1] | 4.29 | 4.36 | –
O=C(Nc1ccc(Cl)cc1)Nc1ccc(OCc2ccc(OCCN3CCCCC3)c(F)c2)c2ccccc12 [IY210106D-1] | – | – | pIC50 (MDA-MB-468 cells; 48 h): 5.20
O=C(NCc1ccc(C(F)(F)F)cc1)Nc1ccc(OCc2ccc(OCCN3CCCCC3)cc2)c2ccccc12 [IY210113D-1] | – | 5.47 | pIC50 (HuH-7 cells): 4.86
O=C(NCc1cc(F)cc(F)c1)Nc1ccc(OCc2ccc(OCCN3CCCCC3)cc2)c2ccccc12 [IY210115B-1] | – | 5.24 | pIC50 (SMMC-7721 cells): 4.40
O=C(NCc1ccc(F)cc1F)Nc1ccc(OCc2ccc(OCCN3CCCCC3)cc2)c2ccccc12 [IY210118B-1] | – | – | pIC50 (SMMC-7721 cells): 4.63
O=C(Nc1ccc(-c2ccccc2)cc1)Nc1ccc(OCc2ccc(OCCN3CCCCC3)cc2)c2ccccc12 [IY210128B-1] | 4.20 | – | –
CNC(=O)c1cc(Oc2ccc(NC(=O)Nc3ccc(Cl)c(C(F)(F)F)c3)cc2)ccn1 [Sorafenib, reference compound] | – | 5.21 | pIC50 (SMMC-7721 cells): 4.52; pIC50 (HuH-7 cells): 4.76

Now from value to compound, other results behind:

pIC50 (MDA-MB-468 cells; MDA-MB-468, 48 h) | pIC50 (HepG2 cells [1]; HepG2, 48 h) | SMILES | also measured
3.16 | 6.06 | O=C(Nc1ccc(Cl)c(Cl)c1)Nc1ccc(OCc2ccc(OCCN3CCCCC3)cc2)c2ccccc12 [ID1214B-1] | pIC50 (MCF-7 cells; [3]): 4.05; pIC50 (MDA-MB-231 cells): 3.94; pIC50 (SMMC-7721 cells): 5.06; induction of cells in the G2/M phase (HepG2 cells [2]; [4]): dramatically induce the liver cancer cells in the G2/M phase in a dose-dependent manner; percentage of cells in the G1/S phase (HepG2 cells [2]; [4]): significantly decrease the percentage of the liver cancer cells in the G1/S phase; length of the G2 phase, % of the cell cycle, after treatment (HepG2 cells [2]; value reached after treatment (increase from DMSO control value)): 17.54%
4.47 | 4.14 | O=C(Nc1ccc(OCc2ccc(OCCN3CCCCC3)cc2)c2ccccc12)NC1CCCC1 [ID1217B-1] | –
– | 4.17 | O=C(Nc1ccc(F)c(F)c1)Nc1ccc(OCc2ccc(OCCN3CCCCC3)cc2)c2ccccc12 [ID210105C-1] | –
– | 5.28 | O=C(NCc1cccc(Cl)c1)Nc1ccc(OCc2ccc(OCCN3CCCCC3)cc2)c2ccccc12 [ID210106D-1] | pIC50 (HuH-7 cells): 5.17
5.21 | – | COc1ccc(NC(=O)Nc2ccc(OCc3ccc(OCCN4CCCCC4)c(Cl)c3)c3ccccc23)cc1 [ID210110C-1] | –
– | 5.88 | COc1ccc(CNC(=O)Nc2ccc(OCc3ccc(OCCN4CCCCC4)cc3)c3ccccc23)cc1 [ID210113C-1] | pIC50 (HuH-7 cells): 5.32
– | 5.40 | O=C(NCc1ccc(Cl)c(C(F)(F)F)c1)Nc1ccc(OCc2ccc(OCCN3CCCCC3)cc2)c2ccccc12 [ID210114B-1] | pIC50 (MCF-7 cells; [3]): 4.88
– | 4.43 | O=C(NCc1ccc(OC(F)(F)F)cc1)Nc1ccc(OCc2ccc(OCCN3CCCCC3)cc2)c2ccccc12 [ID210118D-1] | pIC50 (HuH-7 cells): 4.58
6.13 | 5.46 | O=C(Nc1ccc(OCc2ccc(OCCN3CCCCC3)cc2)c2ccccc12)NC1CCOCC1 [ID210127B-1] | –
5.27 | – | O=C(Nc1ccc(OCc2ccc(OCCN3CCCCC3)cc2F)c2ccccc12)NC1CCCC1 [IY1215C-1] | –
4.88 | – | O=C(Nc1ccccc1)Nc1ccc(OCc2ccc(OCCN3CCCCC3)cc2)c2ccccc12 [IY1223B-1] | –
– | 5.19 | O=C(Nc1ccc(Cl)c(F)c1)Nc1ccc(OCc2ccc(OCCN3CCCCC3)cc2)c2ccccc12 [IY1229C-1] | –
4.69 | – | O=C(Nc1ccc(F)cc1)Nc1ccc(OCc2ccc(OCCN3CCCCC3)c(Br)c2)c2ccccc12 [IY210105A-1] | –
5.72 | 5.36 | COc1cc(NC(=O)Nc2ccc(OCc3ccc(OCCN4CCCCC4)cc3)c3ccccc23)ccc1F [IY210105C-1] | –
5.42 | 5.42 | O=C(Nc1ccc(F)cc1)Nc1ccc(OCc2ccc(OCCN3CCCCC3)cc2)c2ccccc12 [IY210105D-1] | –
– | 5.40 | O=C(NCc1ccc(Cl)cc1)Nc1ccc(OCc2ccc(OCCN3CCCCC3)cc2)c2ccccc12 [IY210113C-1] | pIC50 (HuH-7 cells): 4.90
– | 5.46 | O=C(NCc1ccc(F)cc1)Nc1ccc(OCc2ccc(OCCN3CCCCC3)cc2)c2ccccc12 [IY210119B-1] | pIC50 (SMMC-7721 cells): 6.13
4.93 | 4.96 | O=C(Nc1ccncc1)Nc1ccc(OCc2ccc(OCCN3CCCCC3)cc2)c2ccccc12 [IY210122C-1] | –
